Results taken from patent publication US9290777B2, “Putative cytokinin receptor and methods for use thereof” (NATIONAL UNIVERSITY OF SINGAPORE, priority 2007, dated 2016).

Columns and labels:
purified TAP-HOG1 = molecular target: T1, purified TAP-HOG1 (Arabidopsis thaliana, UniProt O23255); assay: biochemical; assay type: binding; conditions: ITC, ligand injected into purified TAP-HOG1; KD = 1/KA; read-out: KD (dissociation constant)
T1 construct: Protein A (ProtA part of the TAP tag, TEV site between ProtA and CBP) (N, cleaved yes); made in house; host or cells: transgenic Arabidopsis thaliana harbouring 35S:TAP-HOG1
Procedure: Cytokinin binding affinity and thermodynamic analysis of the interaction between HOG1 and cytokinins was examined by ITC (MCSITC, Microcal, Northampton, USA). Three naturally occurring cytokinins (zeatin, benzyladenine and isopentenyl adenine) and thidiazuron (an urea-derived synthetic cytokinin) were used. Additionally, adenosine and NAD were used as control molecules to verify the binding specificity of HOG1 to cytokinins. Data were analyzed by MICROCAL ORIGIN version 2.9 using the best-fit, nonlinear least-squares method for one binding site. The binding stoichiometry (n), and association constant (KA) were calculated from the fitted curves. Subsequently, KD was calculated as 1/KA. Raw heat data were corrected to baseline drift obtained from injections of 0.1 μM purified AHP1 into the sample cell containing 2 μM purified TAP-HOG1. Binding isotherms were created by plotting the heat peak areas against the molar ratio of AHP1 added to HOG1.
Cytokinin binding affinity and thermodynamic analysis of the interaction between HOG1 and cytokinins was examined by ITC (MCSITC, Microcal, Northampton, USA). TAP-HOG1 fusion protein was purified using published protocols (Forler et al. supra) from transgenic Arabidopsis plants harboring the 35S:TAP-HOG1 construct. 0.01 μM benzyladenine (a naturally occurring cytokinin) and 0.1 μM of purified TAP-HOG1 protein were used for each ITC assay with 25 injections (each injection of 2 μl at […] intervals at 37° C.). Data were analyzed with MICROCAL ORIGIN version 2.9 using the best-fit, nonlinear least-squares method for one binding site. The binding stoichiometry (n), and association constant (KA) were calculated from the fitted curves. Subsequently, KD was calculated as 1/KA.

ARR4 = assay: qRT-PCR of cytokinin responsive gene after BA pulse, fold change vs untreated wild type; assay type: cell-based, Arabidopsis thaliana
Procedure: (§1) For quantitative real-time PCR (qRT-PCR) analysis of cytokinin-inducible gene expression, seeds were germinated on MS medium with 3% (w/v) sucrose and grown for 6 days. Cytokinin treatment was carried out by incubating seedlings in the same MS+sucrose liquid medium (no agar) supplemented with 0, 0.01, 0.1, 1 or 5 μM [solubilized in 0.1% dimethylsulfoxide (DMSO) and diluted with the MS medium] for 5 min, 15 min, 30 min or 1 h. The control seedlings were incubated with DMSO (0.1%, the concentration used to dissolve cytokinins for the treatment) for the corresponding durations and used for expression analysis. Before RNA preparation, WT, OE and AS seedlings were pooled and stored in RNAlater solution (Qiagen, Valencia, Calif.). Total RNA was extracted using the Rneasy Plant Mini Kit (Qiagen). SYBRgreen RT-PCR reagents (Applied Biosystems) were used to synthesize double-stranded cDNA. The number of transcripts present in biological replicates each of WT, OE and AS seedlings, with or without BA and DMSO, was determined from three independent replicates. Fold induction of the transcripts was calculated according to the manufacturer's instructions (ABI Prism 7700 Sequence Detection System, User Bulletin #2).

ARR1 and ARR2 = assay: qRT-PCR of type-B ARRs after BA treatment; assay type: cell-based, Arabidopsis thaliana; conditions: transgenic lines
Procedure: as §1

T1 sequence (O23255 other isoform, or with tags, fused parts or gaps with the stated changes): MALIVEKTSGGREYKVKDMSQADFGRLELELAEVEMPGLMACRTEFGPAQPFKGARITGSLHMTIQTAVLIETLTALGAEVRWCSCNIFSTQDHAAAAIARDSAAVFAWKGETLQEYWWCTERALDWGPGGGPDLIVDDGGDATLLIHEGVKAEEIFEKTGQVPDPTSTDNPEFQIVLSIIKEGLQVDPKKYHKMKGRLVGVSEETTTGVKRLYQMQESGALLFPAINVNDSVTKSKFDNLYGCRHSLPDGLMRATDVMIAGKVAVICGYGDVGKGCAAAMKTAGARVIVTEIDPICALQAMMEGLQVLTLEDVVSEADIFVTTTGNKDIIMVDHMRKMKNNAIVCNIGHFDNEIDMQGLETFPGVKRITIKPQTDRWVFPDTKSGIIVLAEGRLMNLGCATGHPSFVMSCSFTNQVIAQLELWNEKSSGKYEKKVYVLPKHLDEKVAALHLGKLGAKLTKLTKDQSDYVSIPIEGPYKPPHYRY

c1ccc(CNc2ncnc3nc[nH]c23)cc1 [benzyladenine]
Kd (purified TAP-HOG1): 20.6 nM
ARR4 fold change (ARR4; BA 0.01 μM, 5 min, AS1, ↑ up): 4.12↑
ARR4 fold change (ARR4; BA 0.01 μM, 5 min, AS8, ↑ up): 6.1↑
ARR4 fold change (ARR4; BA 0.01 μM, 5 min, AS21, ↑ up): 8.01↑
ARR4 fold change (ARR4; BA 0.01 μM, 5 min, OE1, ↓ down): 5.01↓
ARR4 fold change (ARR4; BA 0.01 μM, 5 min, OE12, ↓ down): 5.87↓
ARR4 fold change (ARR4; BA 0.01 μM, 5 min, OE18, ↓ down): 7.56↓
ARR4 fold change (ARR4; BA 0.01 μM, 5 min, Wild type, ↑ up): 3.13↑
ARR4 fold change (ARR4; BA 0.01 μM, 15 min, AS1, ↑ up): 4.57↑
ARR4 fold change (ARR4; BA 0.01 μM, 15 min, AS8, ↑ up): 6.41↑
ARR4 fold change (ARR4; BA 0.01 μM, 15 min, AS21, ↑ up): 8.39↑
ARR4 fold change (ARR4; BA 0.01 μM, 15 min, OE1, ↓ down): 4.66↓
ARR4 fold change (ARR4; BA 0.01 μM, 15 min, OE12, ↓ down): 5.56↓
ARR4 fold change (ARR4; BA 0.01 μM, 15 min, OE18, ↓ down): 7.32↓
ARR4 fold change (ARR4; BA 0.01 μM, 15 min, Wild type, ↑ up): 3.67↑
ARR4 fold change (ARR4; BA 0.01 μM, 30 min, AS1, ↑ up): 4.98↑
ARR4 fold change (ARR4; BA 0.01 μM, 30 min, AS8, ↑ up): 6.86↑
ARR4 fold change (ARR4; BA 0.01 μM, 30 min, AS21, ↑ up): 8.53↑
ARR4 fold change (ARR4; BA 0.01 μM, 30 min, OE1, ↓ down): 4.41↓
ARR4 fold change (ARR4; BA 0.01 μM, 30 min, OE12, ↓ down): 5.13↓
ARR4 fold change (ARR4; BA 0.01 μM, 30 min, OE18, ↓ down): 7.13↓
ARR4 fold change (ARR4; BA 0.01 μM, 30 min, Wild type, ↑ up): 3.98↑
ARR4 fold change (ARR4; BA 0.01 μM, 1 h, AS1, ↑ up): 5.2↑
ARR4 fold change (ARR4; BA 0.01 μM, 1 h, AS8, ↑ up): 6.98↑
ARR4 fold change (ARR4; BA 0.01 μM, 1 h, AS21, ↑ up): 8.99↑
ARR4 fold change (ARR4; BA 0.01 μM, 1 h, OE1, ↓ down): 4.01↓
ARR4 fold change (ARR4; BA 0.01 μM, 1 h, OE12, ↓ down): 4.06↓
ARR4 fold change (ARR4; BA 0.01 μM, 1 h, OE18, ↓ down): 6.98↓
ARR4 fold change (ARR4; BA 0.01 μM, 1 h, Wild type, ↑ up): 4.15↑
ARR4 fold change (ARR4; BA 0.1 μM, 5 min, AS1, ↑ up): 5.14↑
ARR4 fold change (ARR4; BA 0.1 μM, 5 min, AS8, ↑ up): 7.12↑
ARR4 fold change (ARR4; BA 0.1 μM, 5 min, AS21, ↑ up): 9.11↑
ARR4 fold change (ARR4; BA 0.1 μM, 5 min, OE1, ↓ down): 4.56↓
ARR4 fold change (ARR4; BA 0.1 μM, 5 min, OE12, ↓ down): 4.91↓
ARR4 fold change (ARR4; BA 0.1 μM, 5 min, OE18, ↓ down): 6.89↓
ARR4 fold change (ARR4; BA 0.1 μM, 5 min, Wild type, ↑ up): 4.36↑
ARR4 fold change (ARR4; BA 0.1 μM, 15 min, AS1, ↑ up): 5.39↑
ARR4 fold change (ARR4; BA 0.1 μM, 15 min, AS8, ↑ up): 7.32↑
ARR4 fold change (ARR4; BA 0.1 μM, 15 min, AS21, ↑ up): 9.26↑
ARR4 fold change (ARR4; BA 0.1 μM, 15 min, OE1, ↓ down): 4.24↓
ARR4 fold change (ARR4; BA 0.1 μM, 15 min, OE12, ↓ down): 4.71↓
ARR4 fold change (ARR4; BA 0.1 μM, 15 min, OE18, ↓ down): 4.72↓
ARR4 fold change (ARR4; BA 0.1 μM, 15 min, Wild type, ↑ up): 4.58↑
ARR4 fold change (ARR4; BA 0.1 μM, 30 min, AS1, ↑ up): 5.69↑
ARR4 fold change (ARR4; BA 0.1 μM, 30 min, AS8, ↑ up): 7.57↑
ARR4 fold change (ARR4; BA 0.1 μM, 30 min, AS21, ↑ up): 9.48↑
ARR4 fold change (ARR4; BA 0.1 μM, 30 min, OE1, ↓ down): 4.12↓
ARR4 fold change (ARR4; BA 0.1 μM, 30 min, OE12, ↓ down): 4.59↓
ARR4 fold change (ARR4; BA 0.1 μM, 30 min, OE18, ↓ down): 4.36↓
ARR4 fold change (ARR4; BA 0.1 μM, 30 min, Wild type, ↑ up): 4.89↑
ARR4 fold change (ARR4; BA 0.1 μM, 1 h, AS1, ↑ up): 5.98↑
ARR4 fold change (ARR4; BA 0.1 μM, 1 h, AS8, ↑ up): 7.99↑
ARR4 fold change (ARR4; BA 0.1 μM, 1 h, AS21, ↑ up): 9.83↑
ARR4 fold change (ARR4; BA 0.1 μM, 1 h, OE1, ↓ down): 3.96↓
ARR4 fold change (ARR4; BA 0.1 μM, 1 h, OE12, ↓ down): 4.21↓
ARR4 fold change (ARR4; BA 0.1 μM, 1 h, OE18, ↓ down): 4.01↓
ARR4 fold change (ARR4; BA 0.1 μM, 1 h, Wild type, ↑ up): 4.99↑
ARR4 fold change (ARR4; BA 1.0 μM, 5 min, AS1, ↑ up): 6.43↑
ARR4 fold change (ARR4; BA 1.0 μM, 5 min, AS8, ↑ up): 8.01↑
ARR4 fold change (ARR4; BA 1.0 μM, 5 min, AS21, ↑ up): 9.93↑
ARR4 fold change (ARR4; BA 1.0 μM, 5 min, OE1, ↓ down): 3.76↓
ARR4 fold change (ARR4; BA 1.0 μM, 5 min, OE12, ↓ down): 4.19↓
ARR4 fold change (ARR4; BA 1.0 μM, 5 min, OE18, ↓ down): 3.36↓
ARR4 fold change (ARR4; BA 1.0 μM, 5 min, Wild type, ↑ up): 5.1↑
ARR4 fold change (ARR4; BA 1.0 μM, 15 min, AS1, ↑ up): 6.68↑
ARR4 fold change (ARR4; BA 1.0 μM, 15 min, AS8, ↑ up): 8.43↑
ARR4 fold change (ARR4; BA 1.0 μM, 15 min, AS21, ↑ up): 10.02↑
ARR4 fold change (ARR4; BA 1.0 μM, 15 min, OE1, ↓ down): 3.51↓
ARR4 fold change (ARR4; BA 1.0 μM, 15 min, OE12, ↓ down): 4.01↓
ARR4 fold change (ARR4; BA 1.0 μM, 15 min, OE18, ↓ down): 3.21↓
ARR4 fold change (ARR4; BA 1.0 μM, 15 min, Wild type, ↑ up): 5.31↑
ARR4 fold change (ARR4; BA 1.0 μM, 30 min, AS1, ↑ up): 6.73↑
ARR4 fold change (ARR4; BA 1.0 μM, 30 min, AS8, ↑ up): 8.69↑
ARR4 fold change (ARR4; BA 1.0 μM, 30 min, AS21, ↑ up): 10.35↑
ARR4 fold change (ARR4; BA 1.0 μM, 30 min, OE1, ↓ down): 3.29↓
ARR4 fold change (ARR4; BA 1.0 μM, 30 min, OE12, ↓ down): 3.89↓
ARR4 fold change (ARR4; BA 1.0 μM, 30 min, OE18, ↓ down): 3.01↓
ARR4 fold change (ARR4; BA 1.0 μM, 30 min, Wild type, ↑ up): 5.59↑
ARR4 fold change (ARR4; BA 1.0 μM, 1 h, AS1, ↑ up): 7.01↑
ARR4 fold change (ARR4; BA 1.0 μM, 1 h, AS8, ↑ up): 8.93↑
ARR4 fold change (ARR4; BA 1.0 μM, 1 h, AS21, ↑ up): 10.76↑
ARR4 fold change (ARR4; BA 1.0 μM, 1 h, OE1, ↓ down): 3.01↓
ARR4 fold change (ARR4; BA 1.0 μM, 1 h, OE12, ↓ down): 3.56↓
ARR4 fold change (ARR4; BA 1.0 μM, 1 h, OE18, ↓ down): 2.92↓
ARR4 fold change (ARR4; BA 1.0 μM, 1 h, Wild type, ↑ up): 5.87↑
ARR4 fold change (ARR4; BA 5.0 μM, 5 min, AS1, ↑ up): 6.98↑
ARR4 fold change (ARR4; BA 5.0 μM, 5 min, AS8, ↑ up): 8.98↑
ARR4 fold change (ARR4; BA 5.0 μM, 5 min, AS21, ↑ up): 10.43↑
ARR4 fold change (ARR4; BA 5.0 μM, 5 min, OE1, ↓ down): 3.19↓
ARR4 fold change (ARR4; BA 5.0 μM, 5 min, OE12, ↓ down): 3.87↓
ARR4 fold change (ARR4; BA 5.0 μM, 5 min, OE18, ↓ down): 2.45↓
ARR4 fold change (ARR4; BA 5.0 μM, 5 min, Wild type, ↑ up): 6.52↑
ARR4 fold change (ARR4; BA 5.0 μM, 15 min, AS1, ↑ up): 7.01↑
ARR4 fold change (ARR4; BA 5.0 μM, 15 min, AS8, ↑ up): 9.07↑
ARR4 fold change (ARR4; BA 5.0 μM, 15 min, AS21, ↑ up): 10.54↑
ARR4 fold change (ARR4; BA 5.0 μM, 15 min, OE1, ↓ down): 3.01↓
ARR4 fold change (ARR4; BA 5.0 μM, 15 min, OE12, ↓ down): 3.62↓
ARR4 fold change (ARR4; BA 5.0 μM, 15 min, OE18, ↓ down): 2.18↓
ARR4 fold change (ARR4; BA 5.0 μM, 15 min, Wild type, ↑ up): 6.69↑
ARR4 fold change (ARR4; BA 5.0 μM, 30 min, AS1, ↑ up): 7.23↑
ARR4 fold change (ARR4; BA 5.0 μM, 30 min, Wild type, ↑ up): 6.89↑
ARR1 and ARR2 transcript levels (ARR1 and ARR2): not significantly affected
